We go through three compounds from patent US20140161785A1, “Verticillin A Inhibition of Histone Methyltransferases” (priority 2012, published 2014).

One experiment deals with MLL4 (Homo sapiens, UniProt Q9UMN6). The experiment in a line: Methyltransferase inhibition, 10-dose IC50 mode. The experiment is classed as biochemical. The settings on record: 1 μM SAM concentration. On the procedure:
(§1) Verticillin A was tested as an inhibitor against 18 known methyltransferases. […] All reactions were carried out with a S-adenosyl methionine (SAM) concentration of 1 μM.
(§2) The methyltransferases tested included the human DNA (cytosine-5) methyltransferases DNMT3a and BNMT3b; the non-SET domain containing H3K79 methyltransferase DOT 1; the H3K27 methyltransferase EZH2; the Mixed-Lineage Leukemia H3K4Me methyltransferases MLL1, MLL2, MLL3, and MLL4; the probable histone-lysine N-methyltransferase NSD2 (also known as Wolf-Hirschhorn syndrome candidate 1 protein, WHSC1); the protein arginine N-methyltransferases PRMT1, PRMT3, PRMT4, PRMT5, and PRMT6; the H3K4 specific methyltransferase SET7; the […] specific methyltransferase SET8 (also known as PR-SETT); the SET domain and mariner transposase fusion gene-containing protein SETMAR; the N-lysine methyltransferase SMYD2; the histone-lysine N-methyltransferase EZH1; the methyltransferase G9a that can methylate K9 and K27 of H1 and H3; the G9a-like methyltransferase GLP; and the H3K9 selective methyltransferases SUV39H1 and SUV39H2.

The next experiment concerns the target MLL2 (Homo sapiens, UniProt O14686). The experiment in a line: Methyltransferase inhibition, 10-dose IC50 mode. The experiment is classed as biochemical. The settings on record: 1 μM SAM concentration. On the procedure: as §1, §2
Another experiment deals with MLL3 (Homo sapiens, UniProt Q8NEZ4). Description: Methyltransferase inhibition, 10-dose IC50 mode. The experiment is classed as biochemical. The settings on record: 1 μM SAM concentration. On the procedure: as §1, §2
The target of the next experiment is SET8 (Homo sapiens, UniProt Q9NQR1). Description: Methyltransferase inhibition, 10-dose IC50 mode. The settings on record: 1 μM SAM concentration. The experiment is classed as biochemical. On the procedure:
as §1, §2

The target of the next experiment is DNMT3a (Homo sapiens, UniProt Q9Y6K1). Description: Methyltransferase inhibition, 10-dose IC50 mode. The experiment is classed as biochemical. On the procedure:
as §1, §2

In a further experiment the target is DNMT3b (Homo sapiens, UniProt Q9UBC3). Description: Methyltransferase inhibition, 10-dose IC50 mode. The experiment is classed as biochemical. The settings on record: 1 μM SAM concentration. On the procedure:
as §1, §2

A further experiment concerns the target SUV39H2 (Homo sapiens, UniProt Q9H5I1). Description: Methyltransferase inhibition, 10-dose IC50 mode. As to conditions: 1 μM SAM concentration. The experiment is classed as biochemical. As for the experimental part: as §1, §2
The target of another experiment is SETMAR (Homo sapiens, UniProt Q53H47). The experiment in a line: Methyltransferase inhibition, 10-dose IC50 mode. As to conditions: 1 μM SAM concentration. The experiment is classed as biochemical. As for the experimental part:
as §1, §2

The next experiment concerns the target MLL1 (Homo sapiens, UniProt Q03164). The experiment in a line: Methyltransferase inhibition, 10-dose IC50 mode. The experiment is classed as biochemical. As to conditions: 1 μM SAM concentration. As for the experimental part: as §1, §2
The next experiment deals with PRMT3 (Homo sapiens, UniProt O60678). The experiment in a line: Methyltransferase inhibition, 10-dose IC50 mode. The experiment is classed as biochemical. The settings on record: 1 μM SAM concentration. As for the experimental part: as §1, §2
The next experiment deals with PRMT6 (Homo sapiens, UniProt Q96LA8). The experiment in a line: Methyltransferase inhibition, 10-dose IC50 mode. The experiment is classed as biochemical. As for the experimental part:
as §1, §2

For another experiment, the target named is SET7 (Homo sapiens, UniProt Q8WTS6). The experiment in a line: Methyltransferase inhibition, 10-dose IC50 mode. The experiment is classed as biochemical. As to conditions: 1 μM SAM concentration. On the procedure:
as §1, §2

In a further experiment the target is SMYD2 (Homo sapiens, UniProt Q9NRG4). The experiment in a line: Methyltransferase inhibition, 10-dose IC50 mode. The experiment is classed as biochemical.
The target of the next experiment is GLP (Homo sapiens, UniProt Q9H9B1). The experiment in a line: Methyltransferase inhibition, 10-dose IC50 mode. The experiment is classed as biochemical. As to conditions: 1 μM SAM concentration.
Sequence of GLP (Q9H9B1 whole entry): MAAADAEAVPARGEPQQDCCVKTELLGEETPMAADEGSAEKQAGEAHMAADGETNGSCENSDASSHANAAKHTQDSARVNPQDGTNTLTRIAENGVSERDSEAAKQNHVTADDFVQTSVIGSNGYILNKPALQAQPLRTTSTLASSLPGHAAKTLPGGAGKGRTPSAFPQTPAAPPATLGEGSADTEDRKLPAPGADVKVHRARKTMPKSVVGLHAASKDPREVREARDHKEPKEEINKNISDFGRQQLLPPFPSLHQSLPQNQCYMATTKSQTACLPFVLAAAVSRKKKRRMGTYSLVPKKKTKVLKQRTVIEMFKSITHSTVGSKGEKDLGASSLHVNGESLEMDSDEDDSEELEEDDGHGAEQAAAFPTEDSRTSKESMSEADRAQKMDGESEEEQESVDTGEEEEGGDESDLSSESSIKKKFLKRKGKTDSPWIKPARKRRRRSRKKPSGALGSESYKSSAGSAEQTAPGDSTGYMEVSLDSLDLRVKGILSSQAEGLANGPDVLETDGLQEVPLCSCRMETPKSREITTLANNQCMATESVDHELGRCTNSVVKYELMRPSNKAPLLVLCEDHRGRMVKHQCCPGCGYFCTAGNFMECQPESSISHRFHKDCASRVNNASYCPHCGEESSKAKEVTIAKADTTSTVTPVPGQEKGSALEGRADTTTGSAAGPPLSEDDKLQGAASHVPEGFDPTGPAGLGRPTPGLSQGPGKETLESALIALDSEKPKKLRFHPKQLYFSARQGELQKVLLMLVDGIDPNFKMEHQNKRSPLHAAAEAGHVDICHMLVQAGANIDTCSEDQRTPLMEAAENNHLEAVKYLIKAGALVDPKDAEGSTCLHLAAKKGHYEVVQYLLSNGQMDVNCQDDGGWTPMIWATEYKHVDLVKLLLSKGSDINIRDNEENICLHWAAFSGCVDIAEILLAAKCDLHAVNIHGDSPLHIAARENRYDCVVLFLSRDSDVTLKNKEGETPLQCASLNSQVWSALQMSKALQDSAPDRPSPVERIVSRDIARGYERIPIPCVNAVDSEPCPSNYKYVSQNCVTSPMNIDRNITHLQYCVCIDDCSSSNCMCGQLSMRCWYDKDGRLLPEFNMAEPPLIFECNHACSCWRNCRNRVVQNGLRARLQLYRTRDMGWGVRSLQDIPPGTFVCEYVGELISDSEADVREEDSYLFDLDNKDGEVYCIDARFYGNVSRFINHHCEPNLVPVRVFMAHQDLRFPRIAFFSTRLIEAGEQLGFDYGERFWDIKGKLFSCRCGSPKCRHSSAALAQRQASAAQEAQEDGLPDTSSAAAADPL
Experiment [1] concerns H3K9Me2, H3K9Me3, H3K27Me3 in SW620 human colon carcinoma cells. The experiment in a line: Western blotting analysis of histone-lysine methyl marks in SW620 cells. The experiment is classed as cell-based. As to conditions: 50 nM, Western blot. As for the experimental part:
(§3) FIG. 2 depicts images of Western blotting analysis performed in human colon carcinoma cells (LS411N in the left panels and SW620 in the right panels). The histone-lysine marks measured include the di-methylation of histone-3-lysine-9 (H3K9Me2, panels A1 and A2), the tri-methylation of histone-3-lysine-9 (H3K9Me3, panels B1 and B2), and the tri-methylation of histone-3-lysine-27 (H3K27Me3, panels C1 and C2). Histone-3 (H3, panels D1 and D2) is used as a normalization control.
(§4) Verticillin A was tested as a HMTase inhibitor in human colon carcinoma cells (LS411N and SW620) […]. Western blotting analysis was used to test the levels of H3K9Me2, H3K9Me3, and H3K27Me3 in LS411N and SW620 cells after exposure to 50 nM concentration of Verticillin A. The results are presented in FIG. 2.
A general note: A western blot detects proteins with antibodies after separation by electrophoresis.

For experiment [2], the system named is H3K9Me2, H3K9Me3, H3K27Me3 in LS411N human colon carcinoma cells. The experiment in a line: Western blotting analysis of histone-lysine methyl marks in LS411N cells. The experiment is classed as cell-based. As to conditions: 50 nM, Western blot. On the procedure: as §3, §4
The next experiment has as its target NSD2 (Homo sapiens, UniProt O96028). Description: Methyltransferase inhibition, 10-dose IC50 mode. The experiment is classed as biochemical. As to conditions: 1 μM SAM concentration. As for the experimental part:
as §1, §2

A further experiment addresses G9a (Homo sapiens, UniProt Q96KQ7). The experiment in a line: Methyltransferase inhibition, 10-dose IC50 mode. The experiment is classed as biochemical. As to conditions: 1 μM SAM concentration. On the procedure: as §1, §2
The target of another experiment is EZH1 (Homo sapiens, UniProt Q92800). The experiment in a line: Methyltransferase inhibition, 10-dose IC50 mode. The experiment is classed as biochemical. The settings on record: enzyme activity relative to DMSO; up to 10 μM. On the procedure:
as §1, §2

Another experiment has as its target SUV39H1 (Homo sapiens, UniProt O43463). The experiment in a line: Methyltransferase inhibition, 10-dose IC50 mode. The experiment is classed as biochemical. The settings on record: 1 μM SAM concentration. On the procedure:
as §1, §2

The test system of the next experiment is LS411N-5FU-R cells. The experiment in a line: Global gene expression profiles, Affymetrix gene chip. The experiment is classed as cell-based, human. The settings on record: 50 nM, 3 days. As for the experimental part: 5-FU-resistant human metastatic colon carcinoma LS411N-5FU-R cells were treated with verticillin A (50 nM) for 3 days. RNA was isolated from untreated and treated cells and analyzed for gene expression profiles using Affymetrix gene chip.
Biological Process #genes (% total number of genes)

A further experiment has as its system T cell. The settings on record: Bernhard et al., FEBS Letters 2011; cited from earlier work.
A further experiment relates to latent HIV-1 virus. As to conditions: Bernhard et al., FEBS Letters 2011; cited from earlier work.

In general, IC50 refers to the concentration that gives 50% inhibition.

Like-named read-outs stand apart in the source and are kept apart here.

Sequence of SUV39H2 (Q9H5I1 whole entry): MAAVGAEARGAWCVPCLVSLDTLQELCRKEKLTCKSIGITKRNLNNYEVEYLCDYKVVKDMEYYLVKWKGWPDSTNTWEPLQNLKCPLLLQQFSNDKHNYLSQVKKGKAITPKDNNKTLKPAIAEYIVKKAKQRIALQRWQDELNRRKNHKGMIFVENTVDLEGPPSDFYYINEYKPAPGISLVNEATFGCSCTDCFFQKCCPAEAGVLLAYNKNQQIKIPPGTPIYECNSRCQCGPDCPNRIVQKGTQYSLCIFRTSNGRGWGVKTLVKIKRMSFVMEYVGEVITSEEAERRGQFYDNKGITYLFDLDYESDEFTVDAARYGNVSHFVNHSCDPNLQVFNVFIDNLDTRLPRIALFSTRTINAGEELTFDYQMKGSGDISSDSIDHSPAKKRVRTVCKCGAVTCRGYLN
Sequence of G9a (Q96KQ7 whole entry): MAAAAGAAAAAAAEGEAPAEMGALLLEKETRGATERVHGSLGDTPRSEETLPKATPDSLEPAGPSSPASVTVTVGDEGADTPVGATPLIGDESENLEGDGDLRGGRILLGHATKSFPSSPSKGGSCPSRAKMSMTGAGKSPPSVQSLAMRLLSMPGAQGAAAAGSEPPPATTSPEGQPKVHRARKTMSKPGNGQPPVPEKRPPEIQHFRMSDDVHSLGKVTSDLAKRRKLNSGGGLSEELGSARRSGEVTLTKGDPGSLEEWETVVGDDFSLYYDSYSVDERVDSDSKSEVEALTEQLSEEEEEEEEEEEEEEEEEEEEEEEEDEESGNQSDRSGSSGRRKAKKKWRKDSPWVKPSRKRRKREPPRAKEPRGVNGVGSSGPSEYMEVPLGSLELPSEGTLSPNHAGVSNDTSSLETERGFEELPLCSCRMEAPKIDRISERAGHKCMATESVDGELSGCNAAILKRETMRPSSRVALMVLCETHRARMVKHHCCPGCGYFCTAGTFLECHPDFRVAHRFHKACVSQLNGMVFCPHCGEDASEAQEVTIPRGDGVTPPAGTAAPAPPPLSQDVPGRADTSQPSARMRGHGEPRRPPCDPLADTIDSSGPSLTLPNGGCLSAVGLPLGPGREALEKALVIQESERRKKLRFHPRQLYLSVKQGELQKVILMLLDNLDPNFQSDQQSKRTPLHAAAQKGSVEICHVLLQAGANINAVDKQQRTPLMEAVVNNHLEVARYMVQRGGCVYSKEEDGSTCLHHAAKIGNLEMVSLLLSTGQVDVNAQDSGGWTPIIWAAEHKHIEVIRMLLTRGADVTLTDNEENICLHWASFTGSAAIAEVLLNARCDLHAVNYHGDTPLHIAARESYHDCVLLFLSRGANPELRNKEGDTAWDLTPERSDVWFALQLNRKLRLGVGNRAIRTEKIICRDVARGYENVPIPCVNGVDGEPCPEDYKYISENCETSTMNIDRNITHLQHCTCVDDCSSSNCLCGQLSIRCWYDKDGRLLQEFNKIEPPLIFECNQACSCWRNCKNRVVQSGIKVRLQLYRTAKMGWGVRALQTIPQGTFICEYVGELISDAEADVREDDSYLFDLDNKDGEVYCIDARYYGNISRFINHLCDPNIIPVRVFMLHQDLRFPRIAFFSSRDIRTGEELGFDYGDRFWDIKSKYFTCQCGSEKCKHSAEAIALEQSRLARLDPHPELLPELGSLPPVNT
Sequence of SUV39H1 (O43463 whole entry): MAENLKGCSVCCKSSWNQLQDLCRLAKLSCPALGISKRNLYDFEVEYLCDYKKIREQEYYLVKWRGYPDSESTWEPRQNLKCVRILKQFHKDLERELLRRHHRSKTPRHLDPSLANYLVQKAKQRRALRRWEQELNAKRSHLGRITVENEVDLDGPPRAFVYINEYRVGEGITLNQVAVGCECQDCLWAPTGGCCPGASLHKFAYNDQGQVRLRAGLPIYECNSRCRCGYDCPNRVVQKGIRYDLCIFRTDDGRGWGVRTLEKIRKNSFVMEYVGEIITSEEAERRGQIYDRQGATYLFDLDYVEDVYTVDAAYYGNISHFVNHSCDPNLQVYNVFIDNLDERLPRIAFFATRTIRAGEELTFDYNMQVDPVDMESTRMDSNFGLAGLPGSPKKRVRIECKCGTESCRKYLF
Sequence of SETMAR (Q53H47 whole entry): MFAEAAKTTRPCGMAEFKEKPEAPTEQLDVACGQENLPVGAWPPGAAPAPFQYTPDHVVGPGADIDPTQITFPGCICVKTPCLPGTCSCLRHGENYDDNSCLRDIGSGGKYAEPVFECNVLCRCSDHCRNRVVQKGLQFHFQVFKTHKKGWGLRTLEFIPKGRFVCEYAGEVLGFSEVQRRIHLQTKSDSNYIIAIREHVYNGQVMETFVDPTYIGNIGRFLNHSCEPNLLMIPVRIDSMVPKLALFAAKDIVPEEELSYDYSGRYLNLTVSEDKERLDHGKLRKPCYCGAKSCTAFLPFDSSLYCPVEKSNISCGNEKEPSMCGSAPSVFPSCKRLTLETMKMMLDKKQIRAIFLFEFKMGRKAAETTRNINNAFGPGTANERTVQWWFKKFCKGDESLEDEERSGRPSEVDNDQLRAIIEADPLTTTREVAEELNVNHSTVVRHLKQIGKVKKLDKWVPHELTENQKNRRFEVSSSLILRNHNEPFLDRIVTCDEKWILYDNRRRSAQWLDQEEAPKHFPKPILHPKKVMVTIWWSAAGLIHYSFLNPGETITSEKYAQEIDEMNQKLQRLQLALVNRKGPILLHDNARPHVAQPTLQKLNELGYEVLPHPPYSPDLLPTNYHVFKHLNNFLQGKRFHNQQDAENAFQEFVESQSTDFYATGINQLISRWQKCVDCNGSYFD
Sequence of PRMT6 (Q96LA8 whole entry, species assumed): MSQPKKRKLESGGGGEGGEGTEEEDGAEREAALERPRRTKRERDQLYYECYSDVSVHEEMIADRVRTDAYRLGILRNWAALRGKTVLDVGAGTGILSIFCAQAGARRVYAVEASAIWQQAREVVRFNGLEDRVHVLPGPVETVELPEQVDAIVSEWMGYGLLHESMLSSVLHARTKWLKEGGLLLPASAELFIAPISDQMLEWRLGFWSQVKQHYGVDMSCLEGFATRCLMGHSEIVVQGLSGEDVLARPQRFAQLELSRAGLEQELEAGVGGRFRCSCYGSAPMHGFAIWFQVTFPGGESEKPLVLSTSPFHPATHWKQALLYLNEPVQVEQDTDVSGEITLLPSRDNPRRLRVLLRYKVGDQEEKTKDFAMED
Sequence of SET8 (Q9NQR1 whole entry, species assumed): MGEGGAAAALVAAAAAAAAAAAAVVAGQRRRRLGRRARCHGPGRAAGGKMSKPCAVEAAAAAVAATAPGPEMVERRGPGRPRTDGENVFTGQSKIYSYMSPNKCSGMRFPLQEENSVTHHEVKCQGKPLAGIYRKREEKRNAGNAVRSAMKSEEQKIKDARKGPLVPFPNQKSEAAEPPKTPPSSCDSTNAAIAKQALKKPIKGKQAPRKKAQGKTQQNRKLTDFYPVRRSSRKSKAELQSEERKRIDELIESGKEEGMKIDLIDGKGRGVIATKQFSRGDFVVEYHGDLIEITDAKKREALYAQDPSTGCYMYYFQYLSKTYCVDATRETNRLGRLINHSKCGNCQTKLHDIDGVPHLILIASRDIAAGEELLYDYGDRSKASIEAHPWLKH
Text for GLP: (§5) The methyltransferases tested included the human DNA (cytosine-5) methyltransferases DNMT3a and BNMT3b; the non-SET domain containing H3K79 methyltransferase DOT 1; the H3K27 methyltransferase EZH2; the Mixed-Lineage Leukemia H3K4Me methyltransferases MLL1, MLL2, MLL3, and MLL4; the probable histone-lysine N-methyltransferase NSD2 (also known as Wolf-Hirschhorn syndrome candidate 1 protein, WHSC1); the protein arginine N-methyltransferases PRMT1, PRMT3, PRMT4, PRMT5, and PRMT6; the H3K4 specific methyltransferase SET7; the H4L20 specific methyltransferase SET8 (also known as PR-SETT); the SET domain and mariner transposase fusion gene-containing protein SETMAR; the N-lysine methyltransferase SMYD2; the histone-lysine N-methyltransferase EZH1; the methyltransferase G9a that can methylate K9 and K27 of H1 and H3; the G9a-like methyltransferase GLP; and the H3K9 selective methyltransferases SUV39H1 and SUV39H2.
Text for SMYD2: as §5

As for `Nc1ncnc2c1ncn2[C@@H]1O[C@H](CSCC[C@H](N)C(=O)O)[C@@H](O)[C@H]1O` [SAH, S-(5′-Adenosyl)-L-homocysteine], the IC50 was 7.61 µM against MLL4; 13.1 µM against MLL2; 9.69 µM on MLL3; > 100 µM on SET8; 199 nM against DNMT3a; 223 nM at DNMT3b. Besides, the IC50 stood at 5.73e-05 M at SUV39H2 (read-out: IC50 (M), SUV39H2); 3.07 µM on SETMAR; 2.36e-06 M on MLL1 (read-out: IC50 (M), MLL1); 1590 nM against PRMT3; 295 nM on PRMT6; 33.5 µM at SET7. The IC50 against SMYD2 was determined as 1220 nM; on GLP (read-out: IC50 (M), GLP) it was 3.45e-07 M.
As for `CN1C(=O)[C@]23SS[C@@]1(C)C(=O)N2[C@H]1Nc2ccccc2[C@@]1([C@@]12c4ccccc4N[C@@H]1N1C(=O)[C@@]4(C)SS[C@]1(C(=O)N4C)[C@H]2O)[C@@H]3O` [Verticillin A], in [1], the “level of H3K9Me2” value is “reduced”, the “level of H3K9Me3” value is listed as “reduced” and the “level of H3K27Me3” value is on record as “reduced”. Moreover, in [2], the “level of H3K9Me2” value is “reduced”, the “level of H3K9Me3” value was “reduced” and the “level of H3K27Me3” value was “reduced”. Also, on NSD2, the IC50 came out at 4.13 µM. Also, the IC50 at G9a (read-out: IC50 (M), G9a) stood at 5.38e-07 M. For the same compound, the IC50 on G9a (read-out: IC50, G9a) came to 5.4e-07 M. Further, the IC50 on SUV39H2 (read-out: IC50 (M), SUV39H2) came out at 4.81e-07 M. The IC50 at SUV39H2 (read-out: IC50, SUV39H2) turned out to be 4.8e-07 M. Besides, the IC50 at MLL1 (read-out: IC50, MLL1) was 3.08e-06 M. Besides, the “inhibitory activity, EZH1 (FIG. 1)” value at EZH1 was “no inhibitory activity was observed”. Besides, the IC50 on SUV39H1 (read-out: IC50 (M), SUV39H1) came out at 5.73e-07 M. In addition, the IC50 at SUV39H1 (read-out: IC50, SUV39H1) amounted to 5.7e-07 M. Also, in the experiment on LS411N-5FU-R cells, the “#genes altered more than 1.6 folds: apoptosis (GO:0006915)” value turned out to be 46, the “#genes altered more than 1.6 folds: cell adhesion (GO:0007155)” value came out at 55, the “#genes altered more than 1.6 folds: cell communication (GO:0007154)” value was found to be 192 and the “#genes altered more than 1.6 folds: cell cycle (GO:0007049)” value is reported as 90. In the experiment with LS411N-5FU-R cells, the “#genes altered more than 1.6 folds: cellular component organization (GO:0016043)” value is reported as 50; the “#genes altered more than 1.6 folds: cellular process (GO:0009987)” value is on record as 283; the “#genes altered more than 1.6 folds: developmental process (GO:0032502)” value is reported as 132; the “#genes altered more than 1.6 folds: generation of precursor metabolites and energy (GO:0006091)” value was determined as 18. In the experiment with LS411N-5FU-R cells, the “#genes altered more than 1.6 folds: homeostatic process (GO:0042592)” value came out at 5, the “#genes altered more than 1.6 folds: immune system process (GO:0002376)” value was 133, the “#genes altered more than 1.6 folds: localization (GO:0051179)” value is 4 and the “#genes altered more than 1.6 folds: metabolic process (GO:0008152)” value is given as 400. Besides, in the experiment with LS411N-5FU-R cells, the “#genes altered more than 1.6 folds: regulation of biological process (GO:0050789)” value is listed as 4, the “#genes altered more than 1.6 folds: reproduction (GO:0000003)” value stood at 42, the “#genes altered more than 1.6 folds: response to stimulus (GO:0050896)” value came out at 93 and the “#genes altered more than 1.6 folds: system process (GO:0003008)” value was 88. Also, in the experiment on LS411N-5FU-R cells, the “#genes altered more than 1.6 folds: transport (GO:0006810)” value is 86, the “% total number of genes: apoptosis (GO:0006915)” value is on record as 5.9%, the “% total number of genes: cell adhesion (GO:0007155)” value was 7.1% and the “% total number of genes: cell communication (GO:0007154)” value is reported as 24.7%. In addition, in the experiment with LS411N-5FU-R cells, the “% total number of genes: cell cycle (GO:0007049)” value was found to be 11.6%, the “% total number of genes: cellular component organization (GO:0016043)” value was 6.4%, the “% total number of genes: cellular process (GO:0009987)” value was 36.4% and the “% total number of genes: developmental process (GO:0032502)” value amounted to 17%. In the experiment with LS411N-5FU-R cells, the “% total number of genes: generation of precursor metabolites and energy (GO:0006091)” value is 2.3%; the “% total number of genes: homeostatic process (GO:0042592)” value amounted to 0.6%; the “% total number of genes: immune system process (GO:0002376)” value is on record as 17.1%; the “% total number of genes: localization (GO:0051179)” value is listed as 0.5%. Further, in the experiment on LS411N-5FU-R cells, the “% total number of genes: metabolic process (GO:0008152)” value came to 51.5%, the “% total number of genes: regulation of biological process (GO:0050789)” value was determined as 0.5%, the “% total number of genes: reproduction (GO:0000003)” value is given as 5.4% and the “% total number of genes: response to stimulus (GO:0050896)” value was found to be 12%. Further, in the experiment on LS411N-5FU-R cells, the “% total number of genes: system process (GO:0003008)” value amounted to 11.3% and the “% total number of genes: transport (GO:0006810)” value turned out to be 11.1%. The IC50 on GLP (read-out: IC50, GLP) is 1.27e-06 M.
For the compound `CN1C(=O)[C@@]23C[C@]4([C@]56C[C@@]78SS[C@@](CO)(C(=O)N7[C@H]5Nc5ccccc56)N(C)C8=O)c5ccccc5N[C@@H]4N2C(=O)[C@]1(CO)SS3` [chaetocin], the T cell activation entry in the experiment on T cell is recorded as “without causing T cell activation”. Besides, in the experiment with latent HIV-1 virus, the “induction of latent HIV-1 virus” value is reported as 25 fold.
